Measurements taken from ChEMBL document CHEMBL4138294, “Cybastacines A and B: Antibiotic Sesterterpenes from a Nostoc sp. Cyanobacterium” (2018).

Assays:
Assay type in all cases: functional
[1] = system: Tsukamurella pulmonis; experiment: Antibacterial activity against Tsukamurella pulmonis clinical isolate by CLSI M07-A9 protocol based assay
[2] = system: Streptococcus pyogenes; experiment: Antibacterial activity against Streptococcus pyogenes clinical isolate by CLSI M07-A9 protocol based assay
[3] = system: Mycobacteroides abscessus; experiment: Antibacterial activity against Mycobacterium abscessus clinical isolate by CLSI M07-A9 protocol based assay
[4] = system: Enterococcus faecium; experiment: Antibacterial activity against Enterococcus faecium clinical isolate by CLSI M07-A9 protocol based assay
[5] = system: Staphylococcus epidermidis; experiment: Antibacterial activity against Staphylococcus epidermidis clinical isolate by CLSI M07-A9 protocol based assay
[6] = system: Nocardia cyriacigeorgica; experiment: Antibacterial activity against Nocardia cyriacigeorgica clinical isolate by CLSI M07-A9 protocol based assay
[7] = system: Nocardia carnea; experiment: Antibacterial activity against Nocardia carnea clinical isolate by CLSI M07-A9 protocol based assay
[8] = system: Enterococcus faecalis; experiment: Antibacterial activity against Enterococcus faecalis clinical isolate by CLSI M07-A9 protocol based assay
[9] = system: Staphylococcus aureus; experiment: Antibacterial activity against Staphylococcus aureus clinical isolate by CLSI M07-A9 protocol based assay

| MIC [1] [µg/mL] | MIC [2] [µg/mL] | MIC [3] [µg/mL] | MIC [4] [µg/mL] | MIC [5] [µg/mL] | MIC [6] [µg/mL] | MIC [7] [µg/mL] | MIC [8] [µg/mL] | MIC [9] [µg/mL] | Structure (SMILES) |
| --- | --- | --- | --- | --- | --- | --- | --- | --- | --- |
| ≤ 8 | ≤ 32 | ≤ 16 | ≤ 32 | ≤ 32 | ≤ 16 | ≤ 16 | ≤ 32 | ≤ 32 | CC1(C)CCC[C@]2(C)C3=C(CC[C@@H]12)[C@@]1(C)CC[C@@]2(C)NC(=N)NC[C@@H]2[C@@]1(C)C[C@H]3O |
| ≤ 2 | ≤ 4 | ≤ 4 | ≤ 4 | ≤ 4 | ≤ 4 | ≤ 4 | ≤ 4 | ≤ 4 | CC1(C)CCC[C@]2(C)[C@@H]3C(=CC[C@@H]12)[C@@]1(C)CC[C@@]2(C)NC(=N)NC[C@@H]2[C@@]1(C)C[C@H]3O |
| ≤ 8 |  | ≤ 8 |  |  | ≤ 8 | ≤ 8 |  |  | C[C@@H](O)[C@H]1C(=O)N2C(C(=O)O)=C(SCCNC=N)C[C@H]12 [IMIPENEM ANHYDROUS] |

| Structure (SMILES) | MIC [1] [µg/mL] | MIC [2] [µg/mL] | MIC [3] [µg/mL] | MIC [4] [µg/mL] | MIC [5] [µg/mL] | MIC [6] [µg/mL] | MIC [7] [µg/mL] | MIC [8] [µg/mL] | MIC [9] [µg/mL] |
| --- | --- | --- | --- | --- | --- | --- | --- | --- | --- |
| CN[C@H](CC(C)C)C(=O)N[C@H]1C(=O)N[C@@H](CC(N)=O)C(=O)N[C@H]2C(=O)N[C@H]3C(=O)N[C@H](C(=O)N[C@H](C(=O)O)c4cc(O)cc(O)c4-c4cc3ccc4O)[C@H](O)c3ccc(c(Cl)c3)Oc3cc2cc(c3O[C@@H]2O[C@H](CO)[C@@H](O)[C@H](O)[C@H]2O[C@H]2C[C@](C)(N)[C@H](O)[C@H](C)O2)Oc2ccc(cc2Cl)[C@H]1O [VANCOMYCIN] |  | ≤ 16 |  | ≤ 8 | ≤ 8 |  |  | ≤ 8 | ≤ 8 |
